Measured values from patent US6399654B1, “Biflavanoids and derivatives thereof as antiviral agents” (priority 1995, dated 2002).
Values after ≈ are worked out from the molar mass of the structure shown.

Legend:
[1] = tested on: Influenza A (H3N2) Beijing/32/92; experiment: microbe, parasite or virus in culture; type: cell-based, influenza A virus; settings: Influenza A virus, MDCK; Influenza A (H3N2) Beijing/32/92; read-out: CPE Inhibition EC50
Influenza B Panama/45/90 = experiment: microbe, parasite or virus in culture; type: cell-based; settings: Influenza B virus, MDCK, read-out: Neutral Red EC50
in vitro = settings: human
[2] = Cytotoxicity by neutral red dye uptake, BSC-1 cells; settings: African green monkey

Compound: O=c1cc(-c2ccc(O)c(-c3c(O)cc4oc(-c5ccc(O)cc5)cc(=O)c4c3O)c2)oc2cc(O)cc(O)c12 [Robustaflavone (3), robustaflavone]
- EC50 [1]: 1.9 µg/mL (≈ 3.53 µM)
- EC50 (Influenza B Panama/45/90): 0.22 µg/mL (≈ 0.409 µM)
- IC50 (in vitro): 56 µg/mL (≈ 104 µM)
- IC50 [2]: ~100 µg/mL (≈ 186 µM)
